Measurements: US5951473A, “Determination of intracellular sodium and potassium ions by NMR” (Board of Regents, The University of Texas System, priority 1997, dated 1999)
“Also recorded” adds a separate entry of the source.

Experiments:
sodium in in vivo liver [1] = assay: In vivo liver ^23 Na NMR with DyTTHA^3- (Blum et al., literature); settings: dose of Blum et al. versus present methods
Protocol: This dose is about 4-6 times greater than a typical dose of MRI contrast agent (0.1-0.2 mmole kg^-1 ), such as GdDTPA^2-. The inventors are aware of only one other ^23 Na NMR study of in vivo liver using a SR. Blum, H., Osbakken, M. D. & Johnson, R. G. (1991) Magn. Reson. Med. 18, 348-357 infused 6 mmoles kg^-1 h^-1 of DyTTHA^3- for 60 to 90 minutes to discriminate between intra- and extracellular sodium. This SR dose is 8-12 times larger than the amount of TmDOTP^5- employed using the methods of the present invention. After DyTTHA^3- infusion, Blum, H., Osbakken, M. D. & Johnson, R. G. (1991) Magn. Reson. […] This is extremely important for valid measurement of tissues volumes, relaxation rates, and ^23 Na visibility during physiological interventions.

[2] = ^23 Na NMR of blood and urine samples during shift reagent infusion; type: in vivo, rat (Sprague-Dawley); settings: after DyTTHA^3- infusion
Excerpt: ^23 Na spectra obtained from the analysis of the blood and urine samples collected during infusion of either TmDOTP^5- or DyTTHA^3- were compared with the respective in vivo kidney spectrum. […] There was a signal from the urine sample at abut 35 ppm after infusion of DyTTHA^3- also, though there was no distinguishable signal in the corresponding in vivo spectrum (FIG. 3A and FIG. 3B).

rat muscle = settings: cited from earlier work
kidney sodium = assay: In vivo ^23 Na NMR of kidney during shift reagent infusion; set-up: species or system rat (Sprague-Dawley)
Protocol: Male Sprage-Dawley rats were prepared for magnetic resonance exam and TmDOTP^5- was infused into animals as described in Example 2. TmDOTP^5- produced well resolved ^23 Na resonances in the kidney with a separation of 7-10 ppm between the extra- and intracellular Na^+ resonances after infusion of about 0.681 mmoles of the SR per Kilogram of Body Weight (KgBW). The inventors also observed a third ^23 Na resonance, broader than the extracellular resonance and shifted to about 35 ppm. This is the first time this resonance has been observed in any SR aided experiment in any organ. After about 10 minutes of TmDOTP^5- infusion (infusion dose 0.147 mmoles/KgBW), one broad shifted resonance became apparent at about 15 ppm. Continued infusion of the SR shifted this resonance further upfield. Simultaneously, another resonance became visible as a high frequency shoulder on the unshifted resonance after about 14 minutes of infusion (infusion dose 0.254 mmoles/KgBW). Finally, the three resonances became clearly resolved after about 17 minutes of infusion (infusion dose 0.334 mmoles/KgBW).
The single ^23 Na resonance broadened with infusion of this shift reagent and the intracellular Na^+ resonance became evident as a shoulder on the shifted extracellular Na^+ resonance only after 3-5 mmoles of DyTTHA^3- /KgBW had been infused.

sodium in in vivo liver [3] = settings: cited from earlier work
[4] = test system: intra- and extracellular sodium of rat liver; assay: In vivo ^23 Na NMR shift experiments in rat liver during shift reagent infusion; settings: for ^23 Na shift and line broadening in words: DyTTHA^3- versus TmDOTP^5-; for dose required to induce a ^23 Na shift of 5 ppm: body weight; for peak width at half height, extracellular resonance / peak width at half height, intracellular resonance: resonances separated by 5 ppm
Protocol: (§1) Animal Preparation: Male Sprague-Dawley rats weighing 350-450 g were initially anesthetized by intramuscular injection of a 0.5 ml mixture of ketamine (13 mg/ml) and xylazine (87 mg/ml). Both jugular veins and a carotid artery were cannulated through a midline neck incision. One jugular vein was used to maintain the anesthesia (2 mg/ml ketamine, 0.25 mg/ml xylazine in 5% guaifenesin) at a rate of 2-3 ml/hour, and the other was used to infuse SR. The blood pressure and heart rate were continuously monitored from the carotid artery during the NMR experiments using a Gould transducer and Coulbourn polygraph. A tracheotomy was performed and the rat was connected to a respirator and maintained at a respiration rate of 90 breaths/minute and a tidal volume of 3 cc. The rats were also nephrectomized to eliminate clearance of the shift reagent, except in those animals where SR clearance was measured. Livers were exposed through a subcostal incision and a surface coil was positioned directly on the liver with the animal in a supine position. The animals were maintained at 37° C. using a water recirculating heating pad.
(§2) SR Infusion: Stock solutions of 80 mM TmDOTP^5- or 400 mM DyTTHA^3- were initially infused at a rate of 2 ml/hr for 6 minutes. […] After achieving a chemical shift difference of 5-7 ppm between the intra- and extracellular sodium resonances, the infusion rate was reduced to 2-3 ml/hr. No Ca^2+ was added during infusion of either SR.
(§3) NMR Data Collection: All in vivo NMR experiments were performed on a 4.7-T 40-cm GE CSI Omega spectrometer (GE NMR Instruments, Fremont, Calif.). Shimming was performed on the sodium signal. A sodium line width of 35-40 Hz was typical. Both ^23 Na and ^31 P spectra were collected in an interleaved fashion during TmDOTP^5- infusion. […] The coil performance was optimized such that there was less sensitivity loss at the ^31 P frequency as compared to at the ^23 Na frequency.
(§4) Switching of these parameters and the spectrometer frequency was executed by a script in an automated fashion. To take advantage of the short spin-lattice relaxation time of sodium, two ^23 Na acquisitions were collected between each ^31 P acquisition. Cyclops phase cycling was used for both the nuclei. […] The FIDs were Fourier transformed after base-line correction and a single exponential multiplication corresponding to 10 Hz line broadening for ^23 Na and a 20 Hz line broadening for ^31 P.

[5] = Physiological measurements (heart rate, pressure, blood serum and gas values) in rats during TmDOTP^5- infusion; settings: doses required for baseline resolution of ^23 Na resonances
Protocol: as §1, §2
(§5) Several key physiological measurements were obtained on a group of animals (n=7) during infusion of TmDOTP^5- using the same protocol as used during all subsequent NMR measurements. […] Excess Ca^2+ was not coadded with the SR in these experiments, unlike in isolated perfused heart experiments where excess Ca^2+ must be coadded with TmDOTP^5- to maintain an extracellular free [Ca^2+ ] of about 1 mM.
(§6) Serum sodium, potassium, and hemoglobin concentrations as well as arterial pH, pCO2 and pO2 were monitored throughout the infusion protocol using a standard clinical blood gas analyzer.

[6] = rat, in vivo
Protocol: as §1, §2, §5, §6

[7] = test system: renal phosphate metabolites; assay: In vivo ^31 P NMR of kidney and blood pressure during TmDOTP^5- infusion; set-up: species or system rat (Sprague-Dawley)
[8] = test system: rat liver phosphate metabolites and intracellular pH; assay: In vivo ^31 P NMR (interleaved) of rat liver during shift reagent infusion
Protocol: as §1, §2, §3, §4

rat brain = settings: cited from earlier work
rat liver = settings: in vivo, iv
Protocol: as §1
The washout rate of TmDOTP^5- was measured by monitoring the frequency of the shifted ^23 Na peak after stopping the infusion.

[9] = Bansal et al. 1992; cited from earlier work
[10] = live rats, Bansal et al. 1992; cited from earlier work
in vivo exposed livers = settings: rat
Protocol: Animal Preparation: Male Sprague-Dawley rats weighing 350-450 g were initially anesthetized by intramuscular injection of a 0.5 ml mixture of ketamine (13 mg/ml) and xylazine (87 mg/ml). Both jugular veins and a carotid artery were cannulated through a midline neck incision. One jugular vein was used to maintain the anesthesia (2 mg/ml ketamine, 0.25 mg/ml xylazine in 5% guaifenesin) at a rate of 2-3 ml/hour, and the other was used to infuse SR. The blood pressure and heart rate were continuously monitored from the carotid artery during the NMR experiments using a Gould transducer and Coulbourn polygraph. A tracheotomy was performed and the rat was connected to a respirator and maintained at a respiration rate of 90 breaths/minute and a tidal volume of 3 cc. The rats were also nephrectomized to eliminate clearance of the shift reagent, except in those animals where SR clearance was measured. […]
The resting transmembrane potential (-Em) was measured in in vivo exposed livers using a modified Ling-Gerard ultramicroelectrode Holliday, R. L., Illner, H. P. & Shires, G. T. (1981) J. Surg. […] Serum sodium, potassium, and hemoglobin concentrations as well as arterial pH, pCO2 and pO2 were monitored throughout the infusion protocol using a standard clinical blood gas analyzer.

[11] = test system: rat liver Na^+ (i) and Na^+ (e)
Protocol: Rats with third degree burns covering 40% of the body surface were employed. Adult male Sprague-Dawley rats (300-500 g) were randomly divided into burn (n=7) and sham-burn (n=4) groups. […] Rats were deeply anesthetized with methoxyflurane, shaved, and secured in a template device. A full-thickness scald burn over 40% of the total body surface area was produced by immersing the exposed body surface into a 100° C. water bath for 12 s on the back and sides. The animals were quickly dried after each exposure to avoid additional injury. […] The sham-burn rats were anesthetized and handled in an identical manner except they were exposed to room temperature water. After recovery from inhalation anesthesia, the animals were placed in separate cages and given food and water ad libitum.
At 24-hr postburn, the animals were anesthetized by intramuscular injection of a 0.5 ml mixture of ketamine (87 mg/ml) and xylazine (13 mg/ml) and were placed on a warming blanket. The left femoral vein, left femoral artery, and left jugular vein were cannulated for supplemental anesthesia for arterial blood pressure measurement and for infusion of the shift reagent, respectively. Heparinized saline, 9 U/ml, was used in the arterial line. A midline laparotomy was performed to expose the liver, and the xiphoid process was removed. Each rat was then secured in a cradle in an upright position for the MRS experiments. A 2.2 cm diameter surface coil dual tuned to 47 MHz for ^23 Na and 72 MHz for ^31 P was positioned over the intersection of the three major lobes and the abdominal incision was sutured in separate layers around the insulated coil leads to prevent fluid and heat loss during NMR data collection.
Concurrent ^23 Na and ^31 P spectra were collected using a Nicolet NT 180 spectrometer with an Oxford 4.2 T vertical bore (130 mm) superconducting magnet. The field homogeneity was adjusted first with the ^1 H free induction decay (FID) from the liver and then with the ^23 Na FID for maximum field uniformity. A ^23 Na line width of 40-50 Hz was typical. ^23 Na spectra were generated from the summed FIDs of 100 excitation pulses (40 μs) at 105-ms intervals using 1,024 word data files and a sweep width of ±3000 Hz. The spectra were zero-filled to 4,096 points before Fourier transformation. The relative areas of the Na^+ (i) and Na^+ (e) resonances in the ^23 Na spectra and of the β-ATP and Pi resonances in the phosphorus spectra were determined with the GEMCAP curve analysis program supplied with the Nicolet software.
After initial baseline spectra were obtained, infusion of TmDOTP^5 was begun at 0.5 mmol kg^-1 h^-1, and the rate was increased slowly to 1.2 or 1.6 mmol kg^-1 h^- over a period of 12 min. […]

[12] = rat, in vivo; remark: listed apart in the source
Protocol: Rats with third degree burns covering 40% of the body surface were employed. Adult male Sprague-Dawley rats (300-500 g) were randomly divided into burn (n=7) and sham-burn (n=4) groups. […] Rats were deeply anesthetized with methoxyflurane, shaved, and secured in a template device. A full-thickness scald burn over 40% of the total body surface area was produced by immersing the exposed body surface into a 100° C. water bath for 12 s on the back and sides. The animals were quickly dried after each exposure to avoid additional injury. No postburn analgesics were administered for this model, since the burn injury was a full-thickness burn that destroys all cutaneous nerve endings; as a result, the rats experienced no postburn pain as evidenced by their eating, drinking, moving freely around the cage, and responding to external stimulus. The sham-burn rats were anesthetized and handled in an identical manner except they were exposed to room temperature water. After recovery from inhalation anesthesia, the animals were placed in separate cages and given food and water ad libitum.
At 24-hr postburn, the animals were anesthetized by intramuscular injection of a 0.5 ml mixture of ketamine (87 mg/ml) and xylazine (13 mg/ml) and were placed on a warming blanket. The left femoral vein, left femoral artery, and left jugular vein were cannulated for supplemental anesthesia for arterial blood pressure measurement and for infusion of the shift reagent, respectively. Heparinized saline, 9 U/ml, was used in the arterial line. A midline laparotomy was performed to expose the liver, and the xiphoid process was removed. Each rat was then secured in a cradle in an upright position for the MRS experiments. A 2.2 cm diameter surface coil dual tuned to 47 MHz for ^23 Na and 72 MHz for ^31 P was positioned over the intersection of the three major lobes and the abdominal incision was sutured in separate layers around the insulated coil leads to prevent fluid and heat loss during NMR data collection. […]

For `O=C([O-])CN(CCN(CCN(CC(=O)[O-])CC(=O)[O-])CC(=O)[O-])CCN(CC(=O)[O-])CC(=O)[O-].[Dy+3]` [DyTTHA^3-, dysprosium(III)triethylenetetraminehexaacetate], the “dose ratio of DyTTHA^3- versus TmDOTP^5-” value (sodium in in vivo liver [1]) is listed as 8-12 times, the “shift of ^23 Na signal from urine sample” value [2] is listed as roughly 35 ppm and the “washout t1/2” value (rat muscle) is listed as 44 min. For the same compound, the “dose at which intracellular Na^+ resonance became evident as a shoulder” value (kidney sodium; kidney) was 3-5 mmoles/KgBW, the “dose ratio versus TmDOTP^5- for comparable shift” value (kidney sodium; kidney) was 5-8 times and the “resolution of Na^+ resonances in kidney in words” value (kidney sodium; kidney in vivo) was “did not produce resolved Na^+ resonances”. For the same compound, the “third highly shifted Na^+ resonance in kidney in words” value (kidney sodium; kidney in vivo) was “no indication of the existence of the third highly shifted Na^+ resonance”, the “resolution of sodium resonances in words” value (sodium in in vivo liver [3]; 6 mmoles kg^-1 h^-1 for 60 to 90 minutes) was “very broad and were not resolved” and the “extracellular Na^+ signal shift in words” value (sodium in in vivo liver [3]; Blum et al.) was “shifted downfield by about the same amount as in the present study”. For the same compound, the “broadening factor of intracellular resonance line-width, DyTTHA^3- versus TmDOTP^5-” value ([4]; rat liver) was roughly 3 factor, the “resolution of intra- and extracellular ^23 Na resonances in words” value ([4]; rat liver) was “very broad and not resolved; also recorded: did not improve the resolution of intra- and extracellular resonances” and the “^23 Na shift and line broadening in words” value ([4]; rat liver) was “much lower ^23 Na shift per unit concentration and more severe line broadening”. The “dose required to induce a ^23 Na shift of 5 ppm” value ([4]; rat liver) was 3.74 mmol/kg, the “peak width at half height, extracellular resonance” value ([4]; rat liver) was 300 Hz and the “peak width at half height, intracellular resonance” value ([4]; rat liver) was 195 Hz. The “hemodynamic stability during infusion” value ([4]; versus TmDOTP^5-) was “hemodynamically more stable”.

In the case of “thulium(III) 1,4,7,10-tetraazacyclododecane-1,4,7,10-tetrakis (methylene phosphonate) [TmDOTP^5-]”, the “liver physiology / tolerability in words” value [5] is reported as “may be safely used in intact animal studies without the co-addition of Ca^2+; also recorded: basic liver physiology is largely unaffected; also recorded: quite non-perturbing to the animal”, the “arterial pCO2” value [6] is reported as 45±2 mm Hg and the “arterial pH” value [6] is reported as 7.36±0.02. The “arterial pO2” value [6] was 120±8 mm Hg, the “developed pressure during infusion” value [6] was 40±5 mm Hg and the “free Ca^2+ levels in blood serum” value [6] was “relatively small change”. For the same compound, the “heart rate during infusion” value [6] was 240±20, the hemoglobin [6] was 13 ± 1 g/dL and the “increase in serum sodium” value [6] was 10 meq/L. For the same compound, the “mean arterial pressure (MAP) during infusion” value [6] was roughly 70 mm Hg, the serum potassium [6] was 3.5±0.2 meq/L and the “serum sodium after infusion” value [6] was 158±5 meq/L. The “renal high energy phosphate levels” value ([7]; kidney) was “unaffected”, the “^31 P resonance areas and chemical shifts, kidney” value ([7]; kidney during infusion) was “did not produce any change” and the “blood pressure of the animals” value ([7]; kidney study) was “small drop in blood pressure”. For the same compound, the “^31 P resonances / phosphate metabolites” value ([8]; rat liver during infusion) was “without producing any changes in phosphate metabolite resonances; also recorded: unaffected”, the “intracellular pH” value ([8]; rat liver, from shift of inorganic phosphate peak) was “without producing any changes in phosphate metabolite resonances or intracellular pH; also recorded: unaffected” and the “washout t1/2” value (rat brain) was 37 min. For the same compound, the “washout t1/2” value (rat liver) was 9 min, the “intracellular Na^+ resonance intensity with further infusion, kidney” value (kidney sodium; kidney in vivo) was “does not change with further SR infusion” and the “resolution of Na^+ resonances in kidney in words” value (kidney sodium; kidney in vivo) was “well resolved”. For the same compound, the “separation between extra- and intracellular Na^+ resonances” value (kidney sodium; kidney, about 0.681 mmoles/KgBW) was 7-10 ppm, the “shift of broad shifted resonance” value (kidney sodium; kidney, about 10 minutes, 0.147 mmoles/KgBW) was “about 15 ppm” and the “infusion dose at which second resonance became visible as shoulder” value (kidney sodium; kidney, about 14 minutes) was 0.254 mmoles/KgBW. For the same compound, the “infusion dose at which three resonances became clearly resolved” value (kidney sodium; kidney, about 17 minutes) was 0.334 mmoles/KgBW, the “shift of third ^23 Na resonance” value (kidney sodium; kidney, after TmDOTP^5- infusion) was “about 35 ppm” and the “crossing of the blood brain barrier” value [9] was “does not cross the blood brain barrier”. For the same compound, the “Ca^2+ release from body stores during infusion” value [10] was “rapidly released from body stores”, the “resting transmembrane potential (-Em) of liver” value (in vivo exposed livers) was “tended to increase during the highest infusion rates” and the “total dosage needed to produce an equivalent Na^+ shift, burned animals” value ([11]; burned rats, liver) was 0.44 ± 0.04 mmol. The “total dosage needed to produce an equivalent Na^+ shift, control animals” value ([11]; control rats, liver) was 0.64 ± 0.08 mmol, the “Na^+ (i) concentration in hepatic cells on infusion” value ([11]; rat, in vivo) was “did not alter Na^+ (i) concentration in hepatic cells” and the “^31 P spectra of livers during infusion” value ([11]; rat, in vivo) was “did not change appreciably”. For the same compound, the “heart rate throughout the study” value [12] was 261±19 beats/min, the “mean arterial blood pressure (MAP) after infusion, burn group” value [12] was 65±4 mm Hg and the “mean arterial blood pressure (MAP) after infusion, sham burn group” value [12] was 78±3 mm Hg. For the same compound, the “dose at which intra- and extracellular ^23 Na resonances were clearly resolved” value ([4]; rat liver) was 0.55 mmol/kg, the “intracellular Na^+ peak intensity with further infusion” value ([4]; rat liver) was “did not change with further infusion” and the “resolution of intra- and extracellular ^23 Na resonances in words” value ([4]; rat liver) was “sharp and well resolved; also recorded: baseline resolved peaks”. The “^23 Na shift and line broadening in words” value ([4]; rat liver) was “larger ^23 Na chemical shift per unit concentration”, the “paramagnetic shift of extracellular Na^+” value ([4]; rat liver, after 0.65 mmoles kg^-1) was “approximately 5 ppm” and the “dose required to induce a ^23 Na shift of 5 ppm” value ([4]; rat liver) was 0.65 mmol/kg. For the same compound, the “peak width at half height, extracellular resonance” value ([4]; rat liver) was 80 Hz and the “peak width at half height, intracellular resonance” value ([4]; rat liver) was 70 Hz.
